# Experimental data: US20250108038A1 (priority 2023, published 2025)
# Several values for one entry are separate records, joined by “and”; a condition that tells them apart may be missing. Equal values may be shown once.
# System: Long Evans rats
# Assay: Behavioral satiety sequence (BSS)
# Format: in vivo, Long Evans rat
# Conditions: for BSS scoring A (active), Time Bin 13 (60-65 TOTAL), AVG / BSS scoring A (active), Time Bin 14 (65-70 TOTAL), AVG / BSS scoring A (active), Time Bin 15 (70-75 TOTAL), AVG / BSS scoring A (active), Time Bin 16 (75-80 TOTAL), AVG / BSS scoring A (active), Time Bin 17 (80-85 TOTAL), AVG / BSS scoring A (active), Time Bin 18 (85-90 TOTAL), AVG / BSS scoring E (eating/drinking), Time Bin 13 (60-65 TOTAL), AVG / BSS scoring E (eating/drinking), Time Bin 14 (65-70 TOTAL), AVG / BSS scoring E (eating/drinking), Time Bin 15 (70-75 TOTAL), AVG / BSS scoring E (eating/drinking), Time Bin 16 (75-80 TOTAL), AVG / BSS scoring E (eating/drinking), Time Bin 17 (80-85 TOTAL), AVG / BSS scoring E (eating/drinking), Time Bin 18 (85-90 TOTAL), AVG / BSS scoring G (grooming), Time Bin 13 (60-65 TOTAL), AVG / BSS scoring G (grooming), Time Bin 14 (65-70 TOTAL), AVG / BSS scoring G (grooming), Time Bin 15 (70-75 TOTAL), AVG / BSS scoring G (grooming), Time Bin 16 (75-80 TOTAL), AVG / BSS scoring G (grooming), Time Bin 17 (80-85 TOTAL), AVG / BSS scoring G (grooming), Time Bin 18 (85-90 TOTAL), AVG / BSS scoring R (resting), Time Bin 13 (60-65 TOTAL), AVG / BSS scoring R (resting), Time Bin 14 (65-70 TOTAL), AVG / BSS scoring R (resting), Time Bin 15 (70-75 TOTAL), AVG / BSS scoring R (resting), Time Bin 16 (75-80 TOTAL), AVG / BSS scoring R (resting), Time Bin 17 (80-85 TOTAL), AVG / BSS scoring R (resting), Time Bin 18 (85-90 TOTAL), AVG: AVG of animals LT-1 to LT-12
# Excerpt: The Behavioural Satiety Sequence (BSS) is a technique used to evaluate physiological satiety. It is based on the expression of a sequence of behaviors including eating, grooming, locomotor activity, followed by resting, which are typically observed in rodents post-ingestion (Halford et al, 1998, Pharmacology Biochemistry and Behaviour. 61(2): 159-168). The BSS is a widely used model for determining the effects of novel pharmaceuticals on food intake and measures of satiety in rodents (Oliveira et al, 2011, Revista de Nutrição. 24(4) 619-628), and to discriminate the cause of reduced food intake following pharmacological manipulation. For example, treatments that may reduce food intake by non-specific mechanisms, such as immobility, malaise, and taste adulteration, will disrupt this sequence (Halford et al, 1998, Pharmacology Biochemistry and Behaviour. 61(2): 159-168).
# Specifically, 12 male Long-Evans rats were food-deprived for 22 h with a 2 h feeding period each day. Rats were trained to consume daily food during the 2 h period over 25 days. The testing phase was initiated once the rats consistently consumed 16-18 g of food per day with ≤10% variance in amount of feed consumed. Feeding took place in designated individual boxes in a quiet room separate from the housing room. Continuous remote monitoring via video camera during feeding was used to assess the BSS. Food consumption was measured by weighing the total available food before and after the 2 h feeding window, correcting for spillage. Lorcaserin (1 mg/kg) was included as a reference control (Higgins et al, 2011, Neuropsychopharmacology. 37(5): 1177-1191). Subjects were tested using a repeated-measures, Latin square design with 2-3 days wash-out between treatment cycles.
# On scheduled test days, animals were monitored remotely via video camera during the feeding access period. The occurrence of four mutually exclusive behaviors (eating/drinking, grooming, active, rest) were individually scored. Over the 2 h feeding period, behaviors were assessed every 30 seconds. Scores were compiled into 23 5 min timebins (timebin 24 was removed due to early removal of animals) and the frequency of each behavior within each timebin was calculated to determine a temporal frequency of each measure (Rodgers et al, 2010, Pharmacology Biochemistry and Behaviour. 97: 3-14). Percentage time was plotted for each behavioral sequence in each timebin to compare between treatment groups (Higgins et al, 2011, Neuropsychopharmacology. 37(5): 1177-1191).
# [1] = 0.1 mg/kg, raw score per animal LT-1 to LT-12
# [2] = 0.3 mg/kg, raw score per animal LT-1 to LT-12
smiles,measurement,setting,value
Clc1ccc(C2(OCC3OCCO3)c3ccccc3C3=NCCN32)cc1 (stereo not drawn) [Compound I-19],"BSS scoring A (active), Time Bin 13 (60-65 TOTAL), AVG",0.1 mg/kg,0.20
same,"BSS scoring A (active), Time Bin 14 (65-70 TOTAL), AVG",0.1 mg/kg,0.10
same,"BSS scoring A (active), Time Bin 15 (70-75 TOTAL), AVG",0.1 mg/kg,0.13
same,"BSS scoring A (active), Time Bin 16 (75-80 TOTAL), AVG",0.1 mg/kg,0.23
same,"BSS scoring A (active), Time Bin 17 (80-85 TOTAL), AVG",0.1 mg/kg,0.36
same,"BSS scoring A (active), Time Bin 18 (85-90 TOTAL), AVG",0.1 mg/kg,0.22
same,"BSS scoring E (eating/drinking), Time Bin 13 (60-65 TOTAL), AVG",0.1 mg/kg,0.74
same,"BSS scoring E (eating/drinking), Time Bin 14 (65-70 TOTAL), AVG",0.1 mg/kg,0.83
same,"BSS scoring E (eating/drinking), Time Bin 15 (70-75 TOTAL), AVG",0.1 mg/kg,0.83
same,"BSS scoring E (eating/drinking), Time Bin 16 (75-80 TOTAL), AVG",0.1 mg/kg,0.63
same,"BSS scoring E (eating/drinking), Time Bin 17 (80-85 TOTAL), AVG",0.1 mg/kg,0.58
same,"BSS scoring E (eating/drinking), Time Bin 18 (85-90 TOTAL), AVG",0.1 mg/kg,0.71
same,"BSS scoring G (grooming), Time Bin 13 (60-65 TOTAL), AVG",0.1 mg/kg,0.03
same,"BSS scoring G (grooming), Time Bin 14 (65-70 TOTAL), AVG",0.1 mg/kg,0.05
same,"BSS scoring G (grooming), Time Bin 15 (70-75 TOTAL), AVG",0.1 mg/kg,0.01
same,"BSS scoring G (grooming), Time Bin 16 (75-80 TOTAL), AVG",0.1 mg/kg,0.05
same,"BSS scoring G (grooming), Time Bin 17 (80-85 TOTAL), AVG",0.1 mg/kg,0.05
same,"BSS scoring G (grooming), Time Bin 18 (85-90 TOTAL), AVG",0.1 mg/kg,0.02
same,"BSS scoring R (resting), Time Bin 13 (60-65 TOTAL), AVG",0.1 mg/kg,0.03
same,"BSS scoring R (resting), Time Bin 14 (65-70 TOTAL), AVG",0.1 mg/kg,0.02
same,"BSS scoring R (resting), Time Bin 15 (70-75 TOTAL), AVG",0.1 mg/kg,0.03
same,"BSS scoring R (resting), Time Bin 16 (75-80 TOTAL), AVG",0.1 mg/kg,0.08
same,"BSS scoring R (resting), Time Bin 17 (80-85 TOTAL), AVG",0.1 mg/kg,0.02
same,"BSS scoring R (resting), Time Bin 18 (85-90 TOTAL), AVG",0.1 mg/kg,0.06
same,"BSS scoring A (active), Time Bin 13 (60-65 TOTAL)",[1],0 (5×) and 4 (2×) and 5 and 1 (3×) and 8
same,"BSS scoring A (active), Time Bin 14 (65-70 TOTAL)",[1],0 (6×) and 1 (2×) and 4 and 2 (3×)
same,"BSS scoring A (active), Time Bin 15 (70-75 TOTAL)",[1],5 and 3 (3×) and 0 (7×) and 2
same,"BSS scoring A (active), Time Bin 16 (75-80 TOTAL)",[1],4 (3×) and 3 and 5 (2×) and 0 (4×) and 2 and 1
same,"BSS scoring A (active), Time Bin 17 (80-85 TOTAL)",[1],0 (3×) and 3 and 9 (2×) and 1 and 6 and 5 and 4 (2×) and 2
same,"BSS scoring A (active), Time Bin 18 (85-90 TOTAL)",[1],0 (4×) and 1 (2×) and 7 and 3 and 5 (2×) and 2 (2×)
same,"BSS scoring E (eating/drinking), Time Bin 13 (60-65 TOTAL)",[1],8 (4×) and 5 (2×) and 6 and 10 (3×) and 9 and 2
same,"BSS scoring E (eating/drinking), Time Bin 14 (65-70 TOTAL)",[1],10 (3×) and 8 (3×) and 9 (3×) and 5 and 7 (2×)
same,"BSS scoring E (eating/drinking), Time Bin 15 (70-75 TOTAL)",[1],5 and 7 (2×) and 10 (4×) and 9 (3×) and 6 and 8
same,"BSS scoring E (eating/drinking), Time Bin 16 (75-80 TOTAL)",[1],6 (3×) and 3 (3×) and 10 and 9 (2×) and 8 (2×) and 4
same,"BSS scoring E (eating/drinking), Time Bin 17 (80-85 TOTAL)",[1],10 (2×) and 7 and 0 and 9 (2×) and 3 and 4 and 5 (2×) and 6 and 2
same,"BSS scoring E (eating/drinking), Time Bin 18 (85-90 TOTAL)",[1],10 (4×) and 8 (2×) and 7 (3×) and 0 and 5 and 3
same,"BSS scoring G (grooming), Time Bin 13 (60-65 TOTAL)",[1],0 (9×) and 1 (3×)
same,"BSS scoring G (grooming), Time Bin 14 (65-70 TOTAL)",[1],0 (6×) and 1 (6×)
same,"BSS scoring G (grooming), Time Bin 15 (70-75 TOTAL)",[1],0 (11×) and 1
same,"BSS scoring G (grooming), Time Bin 16 (75-80 TOTAL)",[1],0 (9×) and 4 and 1 (2×)
same,"BSS scoring G (grooming), Time Bin 17 (80-85 TOTAL)",[1],0 (7×) and 1 (4×) and 2
same,"BSS scoring G (grooming), Time Bin 18 (85-90 TOTAL)",[1],0 (10×) and 1 (2×)
same,"BSS scoring R (resting), Time Bin 13 (60-65 TOTAL)",[1],2 and 0 (9×) and 1 (2×)
same,"BSS scoring R (resting), Time Bin 14 (65-70 TOTAL)",[1],0 (10×) and 1 (2×)
same,"BSS scoring R (resting), Time Bin 15 (70-75 TOTAL)",[1],0 (9×) and 1 (3×)
same,"BSS scoring R (resting), Time Bin 16 (75-80 TOTAL)",[1],0 (5×) and 2 and 3 and 1 (5×)
same,"BSS scoring R (resting), Time Bin 17 (80-85 TOTAL)",[1],0 (10×) and 1 (2×)
same,"BSS scoring R (resting), Time Bin 18 (85-90 TOTAL)",[1],0 (7×) and 1 (4×) and 3
same,"BSS scoring A (active), Time Bin 13 (60-65 TOTAL), AVG",0.3 mg/kg,0.09
same,"BSS scoring A (active), Time Bin 14 (65-70 TOTAL), AVG",0.3 mg/kg,0.13
same,"BSS scoring A (active), Time Bin 15 (70-75 TOTAL), AVG",0.3 mg/kg,0.32
same,"BSS scoring A (active), Time Bin 16 (75-80 TOTAL), AVG",0.3 mg/kg,0.13
same,"BSS scoring A (active), Time Bin 17 (80-85 TOTAL), AVG",0.3 mg/kg,0.17
same,"BSS scoring A (active), Time Bin 18 (85-90 TOTAL), AVG",0.3 mg/kg,0.23
same,"BSS scoring E (eating/drinking), Time Bin 13 (60-65 TOTAL), AVG",0.3 mg/kg,0.81
same,"BSS scoring E (eating/drinking), Time Bin 14 (65-70 TOTAL), AVG",0.3 mg/kg,0.80
same,"BSS scoring E (eating/drinking), Time Bin 15 (70-75 TOTAL), AVG",0.3 mg/kg,0.56
same,"BSS scoring E (eating/drinking), Time Bin 16 (75-80 TOTAL), AVG",0.3 mg/kg,0.79
same,"BSS scoring E (eating/drinking), Time Bin 17 (80-85 TOTAL), AVG",0.3 mg/kg,0.69
same,"BSS scoring E (eating/drinking), Time Bin 18 (85-90 TOTAL), AVG",0.3 mg/kg,0.62
same,"BSS scoring G (grooming), Time Bin 13 (60-65 TOTAL), AVG",0.3 mg/kg,0.03
same,"BSS scoring G (grooming), Time Bin 14 (65-70 TOTAL), AVG",0.3 mg/kg,0.03
same,"BSS scoring G (grooming), Time Bin 15 (70-75 TOTAL), AVG",0.3 mg/kg,0.04
same,"BSS scoring G (grooming), Time Bin 16 (75-80 TOTAL), AVG",0.3 mg/kg,0.01
same,"BSS scoring G (grooming), Time Bin 17 (80-85 TOTAL), AVG",0.3 mg/kg,0.05
same,"BSS scoring G (grooming), Time Bin 18 (85-90 TOTAL), AVG",0.3 mg/kg,0.10
same,"BSS scoring R (resting), Time Bin 13 (60-65 TOTAL), AVG",0.3 mg/kg,0.07
same,"BSS scoring R (resting), Time Bin 14 (65-70 TOTAL), AVG",0.3 mg/kg,0.05
same,"BSS scoring R (resting), Time Bin 15 (70-75 TOTAL), AVG",0.3 mg/kg,0.08
same,"BSS scoring R (resting), Time Bin 16 (75-80 TOTAL), AVG",0.3 mg/kg,0.08
same,"BSS scoring R (resting), Time Bin 17 (80-85 TOTAL), AVG",0.3 mg/kg,0.09
same,"BSS scoring R (resting), Time Bin 18 (85-90 TOTAL), AVG",0.3 mg/kg,0.06
same,"BSS scoring A (active), Time Bin 13 (60-65 TOTAL)",[2],0 (7×) and 2 and 3 and 1 (2×) and 4
same,"BSS scoring A (active), Time Bin 14 (65-70 TOTAL)",[2],1 (4×) and 3 and 0 (6×) and 8
same,"BSS scoring A (active), Time Bin 15 (70-75 TOTAL)",[2],0 (2×) and 4 (2×) and 6 and 8 and 1 (2×) and 3 (3×) and 5
